Test results: ChEMBL document CHEMBL5214974, “The design of protozoan phosphoribosyltransferase inhibitors containing non-charged phosphate mimic residues” (Bioorg Med Chem, 2022)

Columns and labels:
[1] = Inhibition of N-terminal His6-tagged Trypanosoma cruzi HGPRT isoform C expressed in Escherichia coli C43(DE3) cells assessed as inhibition of IMP formation using hypoxanthine as substrate by spectrophotometric assay
[2] = Inhibition of N-terminal His6-tagged Trypanosoma cruzi HGXPRT isoform B expressed in Escherichia coli BL21(DE3) cells assessed as inhibition of IMP formation using hypoxanthine as substrate by spectrophotometric assay
[3] = Inhibition of N-terminal His6-tagged HGXPRT expressed in Escherichia coli BL21 cells assessed as reduction in NADH absorbance using hypoxanthine as substrate by IMPDH coupled assay; parameters: species or system Plasmodium falciparum

Structure (SMILES) | Ki [1] [µM] | Ki [2] [µM] | Ki [3] [µM]
O=c1c(O)c(NC[C@@H](CO)NCc2c[nH]c3c(O)ncnc23)c1=O | > 130 | > 140 | > 20
O=C1CN(C[C@@H](CO)NCc2c[nH]c3c(O)ncnc23)S(=O)(=O)N1 | > 130 | > 140 | > 20
O=P(O)(O)CC[C@@H](CO)NCc1c[nH]c2c(O)nc(O)nc12 | 18 | – | 8
O=C1CN(C[C@@H](CO)NCc2c[nH]c3c(O)nc(O)nc23)S(=O)(=O)N1 | > 130 | > 140 | > 20
O=c1c(O)c(NCC[C@@H](CO)NCc2c[nH]c3c(O)ncnc23)c1=O | > 130 | > 140 | > 20
NS(=O)(=O)NC[C@@H](CO)NCc1c[nH]c2c(O)nc(O)nc12 | > 130 | > 140 | > 20
Nc1nc(O)c2[nH]cc(CN[C@H](CO)CCP(=O)(O)O)c2n1 | 0.03 | – | 0.0005
O=C1CN(CC[C@@H](CO)NCc2c[nH]c3c(O)ncnc23)S(=O)(=O)N1 | > 130 | > 140 | > 20
NS(=O)(=O)NC[C@@H](CO)NCc1c[nH]c2c(O)ncnc12 | > 130 | > 140 | > 20
O=c1cc([C@@H](CO)NCc2c[nH]c3c(O)ncnc23)o[nH]1 | > 130 | > 140 | > 20
O=C1CN(CC[C@@H](CO)NCc2c[nH]c3c(O)nc(O)nc23)S(=O)(=O)N1 | > 130 | > 140 | > 20
O=c1[nH]cnc2c(CN[C@H](CO)CCP(=O)(O)O)c[nH]c12 | 0.011 | – | 0.00065
O=C1N[C@@H]([C@@H](CO)NCc2c[nH]c3c(O)ncnc23)CO1 | > 130 | > 140 | > 20
